We go through 2 molecules from patent US6420558B1, “Aminopiperidine derivates as integrin αvβ3 antagonists” (Meiji Seika Kaisha, Ltd., priority 1998, dated 2002).

The structures appear in SMILES notation.

The nature of one data set: Oral absorption in rats. Format: in vivo. The settings on record: data not shown. An excerpt: Therefore, any of the compounds, wherein R^12 represents an alkyl group or a hydrogen atom, can be used in the treatment of the above diseases.
Data set [1] addresses T1, integrin αvβ3 (vitronectin receptor purified from the human placenta) (Homo sapiens, UniProt P05106+P06756).
T1 construct: a vitronectin receptor (protein content: 118 μg/ml) purified from the human placenta; from tissue; host or cells: human placenta
In words: αvβ3 binding assay (vitronectin-vitronectin receptor binding assay). The settings on record: vitronectin binding to human placenta vitronectin receptor; read-out: integrin αvβ3 antagonistic activity, IC50 value. On the procedure: Integrin αvβ3 antagonistic activity was measured for the compounds according to the present invention in a vitronectin-vitronectin receptor binding assay system in accordance with the method of Kouns et al. (W. C. Kouns, D. Kirchhofer, P. Hadvary, A. Edenhofer, T. Weller, G. Pfenninger, H. R. Baumgartner, L. K. Jennings and B. Steiner, Blood, 80, 2539-2547 (1992)).
Specifically, a vitronectin receptor (protein content: 118 μg/ml) purified from the human placenta in accordance with the method of Pytela et al. (R. Pytela, M. D. Pierschbacher, S. Argraves, S. Suzuki, and E. Ruoslahti, Method in Enzymology, 144, 475-489 (1987)) was diluted 50 times with TBS (20 mM Tris-HCl, 150 mM NaCl, 1 mM CaCl2, 1 mM MgCl2, pH 7.4), and distributed and coated on wells (50 μl/well) of a plate (Maxisorp, Nunc, 96 well Immuno Plate). The plate was then allowed to stand at 4° C. for 1 day, washed twice with TBS (200 μl/well), and then subjected to blocking with TBS (150 μl/well) containing 1% bovine serum albumin (SIGMA) at 4° C. overnight. After washing twice with TBS (200 μl/well), 50 μl of vitronectin (CALBIOCHEM) adjusted to 0.2 μg/ml by the addition of TBS (TBS-Tween) containing 0.01% Tween-20 was mixed with 50 μl of each test compound adjusted to each concentration in wells, and a reaction was allowed to proceed at room temperature for 4 hr. After the completion of the reaction, the wells were washed five times with TBS-Tween. A solution prepared by diluting anti-vitronectin rabbit antiserum (CHEMICON) 500 times with TBS-Tween was added as a primary antibody in an amount of 50 μl/well, and a reaction was allowed to proceed at room temperature for 1.5 hr. After washing five times with 200 μl/well of TBS-Tween, a peroxidase (POD)-labeled anti-rabbit IgG antibody solution (CAPPEL) diluted 500 times with TBS-Tween was added as a secondary antibody in an amount of 50 μl/well, and a reaction was allowed to proceed at room temperature for 1.5 hr. After washing five times with TBS-Tween (200 μl/well), ABTS (2,2′-azino-bis(3-ethylbenzthiazoline-6-sulfonic acid), SIGMA) was adjusted to 1 mg/ml by the addition of a ten-fold diluted POD-buffer (ZYMED), and added in an amount of 50 μl/well, and a reaction was allowed to proceed for 5 to 10 min. A 0.1 M citric acid buffer (pH 4.3) containing 0.05% NaN3 was added in an amount of 50 μl/well to stop the reaction, followed by the measurement of the absorbance at 415 nm with a microplate reader (MTP 32, Corona Electric) (reference: 675 nm). The total binding was defined as the absorbance after a reaction using 50 μl of TBS-Tween instead of the test compound, and the non-specific binding (100% inhibition) was defined as the absorbance after a reaction using 50 μl of TBS-Tween containing 2×10^−3 M RGDS. The inhibition was calculated by the following equation: [formula]
IC50 was determined from a primary regression line of the logarithm of each concentration of the test compound and the logarithm of (100−inhibition)/inhibition.

A further data set has as its target GP IIb/IIIa (Homo sapiens, UniProt P05106+P08514). The experiment in a line: GP IIb/IIIa antagonistic activity (method of Pharmacological Test 2 in WO 94/21599). The format is binding. On the procedure: (§1) GP IIb/IIIa Antagonistic Activity and Human Platelet Aggregation Inhibitory Activity
GP IIb/IIIa antagonistic activity was measured for the compounds according to the present invention. The measurement of the GP IIb/IIIa antagonistic activity was carried out according to the method described in Pharmacological Test 2 in WO 94/21599.

Data set [2] concerns human platelet aggregation. The experiment in a line: Human platelet aggregation inhibitory activity (method of Pharmacological Test 1 in WO 94/21599). Format: cell-based. To be noted: human platelets, read-out: inhibition of human platelet aggregation, IC5. value. As to the method: as §1
Human platelet aggregation inhibitory activity was measured for the compounds according to the present invention. The measurement of the human platelet aggregation activity was carried out according to the method described in Pharmacological Test 1 in WO 94/21599.

The subject of data set [3] is human vascular smooth muscle cells adhering to immobilized human vitronectin. In words: Inhibitory activity against adhesion of human vascular smooth muscle cells to vitronectin. Format: cell-based. The settings on record: 1.5 h; human vitronectin-coated plate, 90 min. As to the method:
Inhibitory Activity Against Adhesion of Human Vascular Smooth Muscle Cells to Vitronectin
The adhesion of human vascular smooth muscle cells =+to immobilized human vitronectin was measured in accordance with the method of Liaw et al. (Liaw L, Almeida M, Hart C E, Schwartz S M, and Giachelli C M, Circulation Research, 74 (2), 214-224 (1994)).
A Dulbecco's phosphate buffer (Dulbecco's PBS(−), Nissui Pharmaceutical Co., Ltd.) solution of human plasma-derived vitronectin (CALBIOCHEM) adjusted to a concentration of 4 μg/ml was first added to wells (50 μl/well) of a microplate (Maxisorp, Nunc), and a reaction for immobilization was allowed to proceed at 4° C. overnight. After washing twice with 150 μl of Dulbecco's phosphate buffer, a Dulbecco's phosphate buffer containing 10 mg/ml of bovine serum albumin (SIGMA) was added, followed by blocking at 37° C. for one hr. The assay plate was washed twice with 150 μl of Dulbecco's phosphate buffer.
Separately, human vascular smooth muscle cells cultivated at 37° C. under 5% carbon dioxide in a medium for vascular smooth muscle cells (Clonetics) were separated using a Dulbecco's phosphate buffer containing trypsin-EDTA (GIBCO BRL), washed with Dulbecco's phosphate buffer, and then suspended in a Dulbecco's modified Eagle's basal medium (Nissui Pharmaceutical Co., Ltd.) containing 0.1% bovine serum albumin to a concentration of 5×10^5/ml.
Next, 50 μl of a Dulbecco's modified Eagle's basal medium containing 10 mg/ml of bovine serum albumin with a medicament added thereto was added to the wells of the human vitronectin-coated assay microplate, followed by pre-cultivation under 5% carbon dioxide at 37° C. for 10 min. Thereafter, 50 μl of the medium with human vascular smooth muscle cells suspended therein was added thereto, and the plate was thoroughly stirred. A reaction was allowed to proceed under 5% carbon dioxide at 37° C. for 90 min. The reaction solution containing non-adherent cells were then removed, followed by washing three times with Dulbecco's phosphate buffer. For the adhered cells, 100 μl of a Dulbecco's phosphate buffer containing 4% paraformaldehyde (Wako Pure Chemical Industries, Ltd.) was added, and immobilization was allowed to proceed at room temperature for 10 min. Next, 100 μl of a Dulbecco's phosphate buffer containing 0.5% Toluidine Blue (Croma) and 4% paraformaldehyde was added, and staining was allowed to proceed at room temperature for 5 min, followed by thorough washing with distilled water. The inside of the wells was then air-dried, and a 1% aqueous sodium dodecylsulfate solution was then added to perform cytolysis. The absorbance of the microplate thus obtained was measured at 595 nm. […] The inhibition was calculated by the following equation. IC50 was determined from a primary regression line of the logarithm of each concentration of the test compound and the logarithm of (100−inhibition)/inhibition. [formula]

Chain of GP IIb/IIIa (P08514 32-887 limits assumed): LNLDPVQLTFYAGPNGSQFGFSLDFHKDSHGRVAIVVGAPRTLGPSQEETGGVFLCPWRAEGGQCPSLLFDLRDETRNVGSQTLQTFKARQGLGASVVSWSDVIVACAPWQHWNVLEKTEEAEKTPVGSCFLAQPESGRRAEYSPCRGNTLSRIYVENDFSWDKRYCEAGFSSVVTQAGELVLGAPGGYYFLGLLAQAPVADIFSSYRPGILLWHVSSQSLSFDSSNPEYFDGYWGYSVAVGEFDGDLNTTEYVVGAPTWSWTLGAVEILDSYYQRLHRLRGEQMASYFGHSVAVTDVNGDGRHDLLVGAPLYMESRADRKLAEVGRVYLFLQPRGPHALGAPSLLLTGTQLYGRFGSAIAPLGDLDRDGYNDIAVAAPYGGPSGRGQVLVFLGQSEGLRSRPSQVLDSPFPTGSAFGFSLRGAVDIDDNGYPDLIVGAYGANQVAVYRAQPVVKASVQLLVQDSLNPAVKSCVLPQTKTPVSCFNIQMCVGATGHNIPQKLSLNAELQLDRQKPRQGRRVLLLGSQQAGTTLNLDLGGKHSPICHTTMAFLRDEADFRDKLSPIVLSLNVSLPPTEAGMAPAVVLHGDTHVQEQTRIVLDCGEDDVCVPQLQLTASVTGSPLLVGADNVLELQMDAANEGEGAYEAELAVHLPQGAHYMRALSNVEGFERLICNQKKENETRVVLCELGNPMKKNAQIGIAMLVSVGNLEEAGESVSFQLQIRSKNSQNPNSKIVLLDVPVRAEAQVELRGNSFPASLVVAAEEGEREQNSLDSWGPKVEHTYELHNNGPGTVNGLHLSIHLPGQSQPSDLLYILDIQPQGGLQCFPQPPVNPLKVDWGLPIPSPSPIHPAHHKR
Chain of GP IIb/IIIa (P08514 891-1039 limits assumed): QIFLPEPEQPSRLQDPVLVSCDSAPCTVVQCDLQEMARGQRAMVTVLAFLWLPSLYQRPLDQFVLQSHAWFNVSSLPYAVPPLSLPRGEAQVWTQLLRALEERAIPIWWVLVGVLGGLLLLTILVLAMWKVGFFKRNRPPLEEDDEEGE
Chain of GP IIb/IIIa (P05106 27-788): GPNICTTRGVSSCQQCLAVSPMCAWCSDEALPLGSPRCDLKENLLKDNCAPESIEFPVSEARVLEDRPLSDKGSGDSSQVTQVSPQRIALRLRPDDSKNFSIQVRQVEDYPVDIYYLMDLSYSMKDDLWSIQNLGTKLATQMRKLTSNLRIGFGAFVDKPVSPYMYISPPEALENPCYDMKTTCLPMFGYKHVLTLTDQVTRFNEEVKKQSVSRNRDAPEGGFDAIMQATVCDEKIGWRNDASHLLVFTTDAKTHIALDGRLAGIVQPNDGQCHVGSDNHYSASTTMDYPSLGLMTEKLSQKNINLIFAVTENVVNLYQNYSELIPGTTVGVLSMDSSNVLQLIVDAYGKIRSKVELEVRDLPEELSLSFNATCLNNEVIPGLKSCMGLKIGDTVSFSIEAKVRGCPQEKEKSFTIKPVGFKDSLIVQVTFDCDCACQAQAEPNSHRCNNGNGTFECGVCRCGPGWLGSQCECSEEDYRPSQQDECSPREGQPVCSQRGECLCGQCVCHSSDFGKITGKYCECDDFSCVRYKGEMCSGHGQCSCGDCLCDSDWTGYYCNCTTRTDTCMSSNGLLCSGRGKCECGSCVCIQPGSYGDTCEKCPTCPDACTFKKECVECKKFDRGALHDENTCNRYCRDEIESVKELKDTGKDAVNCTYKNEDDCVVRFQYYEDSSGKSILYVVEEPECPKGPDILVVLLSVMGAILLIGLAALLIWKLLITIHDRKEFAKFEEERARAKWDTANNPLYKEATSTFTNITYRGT
T1 sequence (P06756 31-889 limits assumed): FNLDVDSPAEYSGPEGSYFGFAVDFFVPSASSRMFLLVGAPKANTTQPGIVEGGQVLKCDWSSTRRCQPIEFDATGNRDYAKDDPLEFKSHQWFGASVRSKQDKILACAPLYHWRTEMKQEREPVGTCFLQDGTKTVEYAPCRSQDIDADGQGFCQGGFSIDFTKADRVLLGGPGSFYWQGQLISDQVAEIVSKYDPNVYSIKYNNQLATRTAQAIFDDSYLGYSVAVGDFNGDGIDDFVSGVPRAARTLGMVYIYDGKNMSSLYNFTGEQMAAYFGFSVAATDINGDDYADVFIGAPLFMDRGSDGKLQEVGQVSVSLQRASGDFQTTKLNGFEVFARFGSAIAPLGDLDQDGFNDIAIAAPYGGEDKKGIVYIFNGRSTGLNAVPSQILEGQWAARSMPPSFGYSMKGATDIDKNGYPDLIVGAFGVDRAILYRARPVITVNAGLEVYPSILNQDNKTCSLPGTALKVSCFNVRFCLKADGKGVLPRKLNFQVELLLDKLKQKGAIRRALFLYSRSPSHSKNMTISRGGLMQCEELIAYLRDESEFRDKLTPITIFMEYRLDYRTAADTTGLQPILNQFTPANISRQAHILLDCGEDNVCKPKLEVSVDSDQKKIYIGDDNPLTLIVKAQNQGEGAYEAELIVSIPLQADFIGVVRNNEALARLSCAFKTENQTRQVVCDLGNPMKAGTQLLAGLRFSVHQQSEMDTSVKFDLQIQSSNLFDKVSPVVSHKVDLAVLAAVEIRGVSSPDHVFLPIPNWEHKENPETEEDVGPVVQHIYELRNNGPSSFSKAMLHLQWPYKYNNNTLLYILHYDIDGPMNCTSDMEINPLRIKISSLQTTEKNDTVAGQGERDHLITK
T1 sequence (P06756 891-1048 limits assumed): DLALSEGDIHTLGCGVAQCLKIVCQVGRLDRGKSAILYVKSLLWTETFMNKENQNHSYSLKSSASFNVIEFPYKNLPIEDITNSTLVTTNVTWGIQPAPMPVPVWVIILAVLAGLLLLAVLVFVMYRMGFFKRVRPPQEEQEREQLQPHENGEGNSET
T1 sequence (P05106 27-788): as the sequence (P05106 27-788) above

As to `O=C(NC[C@H](NS(=O)(=O)c1ccccc1)C(=O)O)c1ccc(N2CCC(Nc3ncccn3)CC2)c(Cl)c1` [Example 59, (2S)-Benzenesulfonylamino-3-[3-chloro-4-{4-(pyrimidin-2-ylamino)piperidin-1-yl}benzoylamino]-propionic acid], the oral absorption result in the data set “Oral absorption in rats” is recorded as “had oral absorption”.

`O=C(NC[C@H](NS(=O)(=O)c1ccccc1)C(=O)O)c1ccc(N2CCC(NC3=NCCCN3)CC2)c(Cl)c1` [Example 60, (2S)-Benzenesulfonylamino-3-[3-chloro-4-{4-(1,4,5,6-tetrahydropyrimidin-2-ylamino)piperidin-1-yl}-benzoylamino]propionic acid]: the IC50 in data set [1] is ≤ 1 nM; on GP IIb/IIIa, ≤ 1 nM; in data set [2], ≤ 90 nM; in data set [3] it was ≤ 70 nM.
